Values of other authors as cited in patent US20140343076A1, “PHARMACEUTICAL COMPOSITIONS OF LURASIDONE” (Cadila Healthcare Limited, priority 2013, published 2014).
Structures can show the parent of a compound that is named as a salt.

## O=C1[C@@H]2[C@H]3CC[C@H](C3)[C@@H]2C(=O)N1C[C@@H]1CCCC[C@H]1CN1CCN(c2nsc3ccccc23)CC1 [lurasidone, N-[4-[4-(1,2-benzisothiazol-3-yl)-1-piperazinyl]-(2R,3R)-2,3-tetramethylene-butyl]-(1′R,2′S,3′R,4′S)-2,3-bicyclo[2,2,1]heptanedicarboxyimide hydrochloride]
  solubility in water: less than several
